The assay relates to bleomycin rat model of pulmonary fibrosis. Description: Bleomycin rat model of pulmonary fibrosis, day 14, dexamethasone and/or test compound. In kind it is in vivo. Particulars: Dex 2.0 mg/kg every other day, test compound 40 mg/kg twice a day. The protocol: Rats were intubated with saline or 1 unit of bleomycin. After twenty four hours, rats were weighed and dosed with saline or 2.0 mg/kg of dexamethasone every other day and 1% methyl cellulose (MC) or 40 mg/kg of a test compound twice a day. On day 14, 1-3 hours after dosing, rat were sacrificed and lungs were inflated and collected for analysis.
The primary end points of the analysis were the total hydroxyproline concentration per lung and lung capacity. The secondary end point was the body weight.
The statistical analysis was done using one-way ANOVA with Bonferroni's Multiple Comparison Test.

In the case of `C[C@@H]1C[C@H]2[C@@H]3CCC4=CC(=O)C=C[C@]4(C)[C@@]3(F)[C@@H](O)C[C@]2(C)[C@@]1(O)C(=O)CO` [dexamethasone], the “bleomycin-induced body weight loss” value was “no effect”.
